Assay results from publication PMC7665585, “Antidepressive effect of an inward rectifier K^+ channel blocker peptide, tertiapin-RQ” (PLoS ONE, 2020).
Bridge positions count the residues as written; N and C are the ends. Peptide text beside a SMILES is read from it.

Tested on: Male ICR mice
Test: Open field test (OFT)
Type: in vivo, mouse
Settings: i.c.v., 5 min
Procedure: We performed mouse behavioral experiments in accordance with our previous study. Male ICR mice (n = 199 in total) aged 5 weeks old were purchased from Shimizu Laboratory Supplies (Kyoto, Japan) and maintained in an animal facility for 7–12 days. They had free access to food and water and were kept in a 12-h light/dark cycle (08:00–20:00). Experiments were carried out between 11:00 and 17:00 in a quiet and air-conditioned experimental room, to which mice were habituated for 30–60 min before each experiment. Animal experiments were performed in accordance with the guidelines of the Physiological Society of Japan and were approved by the Committee for Animal Experiments of Kurashiki University of Science and the Arts. Peptides were dissolved in phosphate-buffered saline (PBS). Peptides were injected intracerebroventricularly (i.c.v.) 30 min before behavioral tests (typically 5 μL/mouse), according to a previous study. The mouse was placed into an anesthetizing jar, to which isoflurane (0.2 mL) was added immediately before. After confirming that the mouse was deeply anesthetized we injected the peptide into the right cerebral ventricle over 30 seconds and the injection needle was kept for 1 min after the injection (i.c.v. coordinates: 0 mm caudal to bregma, 1.0 mm lateral to the midline, and 3.5 mm below the skull). The mouse was placed in a cage set on a heating pad (approximately 33°C) for a few minutes until it spontaneously started to move, and then it was put back into its home cage. Each animal was used only once, except for the wheel running test, which was carried out immediately after the elevated plus-maze.
The open-field test (OFT) was performed in accordance with a previous report. The open-field consisted of a square (90 × 90 cm), in which the floor was divided into 16 equal squares. After a mouse was placed in a corner of the open field facing the wall, the number of the entries into the central squares and whole line crossings were counted for 5 min. After the removal of the animal, the apparatus was cleaned and wiped.

CC[C@H](C)[C@@H]1NC(=O)[C@H](CCCNC(=N)N)NC(=O)[C@H](CC(N)=O)NC(=O)[C@@H]2CSSC[C@@H](C(=O)NCC(=O)N[C@@H](CCCCN)C(=O)N[C@@H](CCCCN)C(N)=O)NC(=O)[C@H](CCCCN)NC(=O)[C@H](CCCCN)NC(=O)[C@H](Cc3c[nH]c4ccccc34)NC(=O)[C@H](CSSC[C@H](NC(=O)[C@H](CC(C)C)NC(=O)[C@H](C)N)C(=O)N[C@@H](CC(N)=O)C(=O)N2)NC(=O)[C@H](CCC(N)=O)NC(=O)[C@H](CC(C)C)NC(=O)[C@@H]2CCCN2C(=O)[C@H]([C@@H](C)CC)NC(=O)[C@H]([C@@H](C)CC)NC1=O [Peptide 3, TPN-LQ] (H-ALCNCNRIIIPLQCWKKCGKK-NH2; disulfide 3-14, 5-18; N-terminus and C-terminus assumed)
decreased: entries to the central area in OFT | number of total line crossings in OFT | central line crossings in OFT (n = 6 and 7)
